Source: patent US11479565B2, “Process for preparing substituted imidazole derivatives” (BAYER AKTIENGESELLSCHAFT, priority 2018, dated 2022)

Key:
[1] = log P[a] by HPLC on reversed-phase column (C18), LC-UV in the acidic range; type: physicochemical; conditions: 0.9 ml/l formic acid in water and 1.0 ml/l formic acid in acetonitrile, gradient 10% to 95% acetonitrile, EEC Directive 79/831 Annex V.A8
Method: (§1) The log values were determined according to EEC Directive 79/831 Annex V.A8 by HPLC (high-performance liquid chromatography) on a reversed-phase column (C18) using the following methods: The log P[a] value is determined by LC-UV measurement in the acidic range using 0.9 mill formic acid in water and 1.0 ml/l formic acid in acetonitrile as mobile phases (linear gradient from 10% acetonitrile to 95% acetonitrile). Calibration was carried out using a homologous series of straight-chain alkan-2-ones (having 3 to 16 carbon atoms) with known log values. The values between successive alkanones are determined by linear regression.

[2] = log P[n] by HPLC on reversed-phase column (C18), LC-UV in the neutral range; type: physicochemical; conditions: 79 mg/l ammonium carbonate in water and acetonitrile, gradient 10% to 95% acetonitrile, EEC Directive 79/831 Annex V.A8
Method: as §1, with “P[n]” for “P[a]”, “neutral” for “acidic”, “79 mg/l ammonium carbonate” for “0.9 mill formic acid”, “and” for “and 1.0 ml/l formic acid in”

| SMILES | chromatographic logP [1] | chromatographic logP [2] |
| --- | --- | --- |
| CCS(=O)(=O)c1c(-c2nc3cc(C(F)(F)C(F)(F)F)nnc3n2C)nc(Br)n1C [Example 3, 6-[2-bromo-5-(ethylsulfonyl)-1-methyl-1H-imidazol-4-yl]-7-methyl-3-(pentafluoroethyl)-7H-imidazo[4,5-c]pyridazine] | 2.8 | 2.76 |
| CCSc1c(-c2nc3cc(C(F)(F)C(F)(F)F)nnc3n2C)nc(-c2ccc(Cl)nn2)n1C [Example 5, 6-[2-(6-chloropyridazin-3-yl)-5-(ethylsulfanyl)-1-methyl-1H-imidazol-4-yl]-7-methyl-3-(pentafluoroethyl)-7H-imidazo[4,5-c]pyridazine] | 4.13 | 4.01 |

Next, values leading:

| chromatographic logP [1] | chromatographic logP [2] | SMILES |
| --- | --- | --- |
| 3.14 | 3.01 | CCSc1c(-c2nc3cc(C(F)(F)F)nnc3n2C)nc(Br)n1C [Example 1, 6-[2-bromo-5-(ethylsulfanyl)-1-methyl-1H-imidazol-4-yl]-7-methyl-3-(trifluoromethyl)-7H-imidazo[4,5-]pyridazine] |
| 3.8 | 3.66 | CCSc1c(-c2nc3cc(C(F)(F)C(F)(F)F)nnc3n2C)nc(Br)n1C [Example 2, 6-[2-bromo-5-(ethylsulfanyl)-1-methyl-1H-imidazol-4-yl]-7-methyl-3-(pentafluoroethyl)-7H-imidazo[4,5-c]pyridazine] |
| 3.63 | 3.51 | CCSc1c(-c2nc3cc(C(F)(F)C(F)(F)F)ncc3n2C)nc(Br)n1C [Example 4, 2-[2-bromo-5-(ethylsulfanyl)-1-methyl-1H-imidazol-4-yl]-3-methyl-6-(pentafluoroethyl)-3H-imidazo[4,5-c]pyridine] |
| 4.32 | 4.2 | CCSc1c(-c2nc3cc(C(F)(F)C(F)(F)F)nnc3n2C)nc(-c2ccc(C#N)cn2)n1C [Example 6, 6-{5-(ethylsulfanyl)-1-methyl-4-[7-methyl-3-(pentafluoroethyl)-7H-imidazo[4,5-c]pyridazin-6-yl]-1H-imidazol-2-yl}nicotinonitrile] |
